Data: PMC10487843, “Evaluation of Anticancer and Anti-Inflammatory Activities of Some Synthetic Rearranged Abietanes” (International Journal of Molecular Sciences, 2023)
Converted amounts (≈) assume the structure as drawn.

How the values were obtained:
[1] = system: murine melanoma (B16–F10); test: MTT cell viability assay, B16-F10; format: cell-based; conditions: Mus musculus, 72 h; for IC80: 80% growth inhibition
Excerpt: In this study, we employed the MTT (3-(4,5-dimethyl thiazol-2-yl)-2,5-diphenyltetrazolium bromide) colorimetric assay to evaluate the cytotoxic activity of selected abietanes (compounds 5, 7, 13, 17, and 19) against three tumor cell lines: human colon adenocarcinoma (HT29), human hepatocarcinoma (HepG2), and murine melanoma (B16–F10). The MTT assay relied on the conversion of MTT to formazan by viable cells, with the formazan concentration proportional to the number of viable cells. The concentrations required for 50 and 80% growth inhibition (IC50 and IC80) were determined for each compound.
The human colorectal adenocarcinoma cell line HT29 (ECACC no. 9172201; ATCC no. HTB-38), the human hepatocarcinoma cell line HepG2 (ECACC no. 85011430), the mouse melanoma cells B16–F10 (ATCC no. CRL-6475), and the murine monocyte/macrophage like RAW 264.7 cell line (ATCC no, TIB-71) were obtained from the cell bank of the University of Granada, Spain. The tumor cell lines were cultured in DMEM (Dulbecco’s modified Eagle’s medium) supplemented with 2 mM glutamine, 10% heat-inactivated FCS (fetal calf serum), and 50 μg/mL of gentamicin (for all cancer cell lines). The RAW 264.7 cell line was cultured in RPMI1640 medium, supplemented with 2 mM glutamine, 10% heat-inactivated FCS, and 50 μg/mL of gentamicin. All cell lines were incubated at 37 °C, in an atmosphere of 5% CO2 and 95% humidity. The culture media were changed every 48 h, and the confluent cultures were separated with a trypsin solution (0.25% EDTA). In all experiments, monolayer cells were grown to 80–90% confluence in sterile cell culture flasks.
The effects of the compounds on the cell viability were established using the MTT method (Sigma, St. Louis, MO, USA). The cytotoxicity of the compounds was assessed by measuring the absorbance of MTT dye staining of metabolically competent cells. The cells were cultivated in 96-well plates at 6.0 × 10^3 cells/mL for the HT29 and RAW 264.7 cell lines, at 5.0 × 10^3 cells/mL for B16–F10 cells, and 15.0 × 10^3 cells/mL for the HepG2 cell line, with a final volume of 200 μL per well being incubated with the different products (0–100 μg/mL). After 72 h, 100 μL of MTT solution (0.5 mg/mL) in 50% of PBS and 50% of the medium was added to each well. Following incubation for 1.5 h, formazan was resuspended in 100 μL of DMSO, and each concentration was tested in triplicate. The cell viability relative to the untreated control cells was determined by measuring the absorbance at 570 nm using an ELISA plate reader (Tecan Sunrise MR20–301, TECAN, Grödig, Austria).

HT29 cells [2] = test: HT29 cell cycle analysis (PI flow cytometry); format: cell-based, human; conditions: HT29, 72 h
Experimental: Flow cytometry was employed to assess the impact of compounds 5 and 13 on the cell cycle profiles of HT29 cells after 72 h of treatment; by using propidium iodide (PI) incorporation, whose fluorescence directly correlated with DNA content, we analyzed the distribution of cells in different cell cycle phases.
The amount of DNA in the different phases of the cell cycle (G0/G1, S, and G2/M) was quantified using flow cytometry after staining with propidium iodide (PI). HT29 cells were seeded at a density of 5 × 10^4 cells per well in 24-well plates containing 1.5 mL of culture medium. […] Next, the cells were washed twice with PBS, trypsinized, and resuspended in 1 × TBS (10 mM Tris and 150 mM NaCl). After this, Vindelov buffer (100 mM Tris, 100 mM NaCl, 10 mg/mL Rnase, 1 mg/mL PI, and 0.1% Triton x-100, pH 8) was added. Finally, the cells were kept on ice and stained with 20 μL of 1 mg/mL PI solution before being measured. Each experiment analyzed approximately 10 × 10^3 cells. The experiments were performed twice, each with three replications per assay. The samples were analyzed using a flow cytometer, and the number of cells in each stage of the cell cycle was estimated by […] cell sorting (FACS) at 488 nm in an Epics XL flow cytometer (Coulter Corporation, Hialeah, FL, USA).

HT29 cells [3] = test: Annexin V-FITC/PI flow cytometry apoptosis analysis; format: cell-based, human; conditions: HT29, 72 h; for total apoptosis, % of cell population: control 9%
Excerpt: To further investigate the potential mechanisms underlying the cytotoxic and cytostatic effects of compounds 5 and 13 on HT29 cells, Annexin V–FITC/PI double staining along with […] cell sorter (FACS) cytometry analysis was employed for determinate apoptosis induction. This assay allowed for the distinction of different cell populations, including normal cells (Annexin V− PI−), early apoptotic cells (Annexin V+ PI−), late apoptotic cells (Annexin V+ PI+), and necrotic cells (Annexin V− PI+).
These assays on the HT29 cell line were conducted 72 h after treatment with the selected rearranged abietanes at their corresponding IC50 and IC80 concentrations.
Flow cytometry was used to detect annexin V-FICT and PI double staining, to quantify the pro-apoptotic impact of compounds 5 and 13. Apoptosis was assessed through flow cytometry using a FACScan flow cytometer (Coulter Corporation, Hialeah, FL, USA). In this assay, 5 × 10^4 HT29 cells were plated in 24-well plates with 1.5 mL of medium and incubated for 24 h. The cells were then treated with the selected compounds in triplicate for 24, 48, and 72 h at their corresponding IC50 and IC80 concentrations. The cells were harvested and resuspended in a binding buffer (10 mM HEPES/NaOH with pH 7.4, 140 mM NaCl, and 2.5 mM CaCl2). Subsequently, Annexin V-FITC conjugate (1 µg/mL) was added and incubated for 15 min in the dark at room temperature. The cells were stained with 5 µL of 1 mg/mL PI solution before analysis. Approximately 10 × 10^3 cells were analyzed in each experiment; the experiments were performed twice, each with three replications per assay.

HT29 cells [4] = test: Hoechst-stained fluorescence microscopy (nuclear morphology); format: cell-based, human; conditions: HT29, 72 h
Excerpt: To assess the apoptosis induction capacity of compounds 5 and 13 on HT29 cells, we performed Hoechst […] nuclear staining, a well-established method for visualizing the morphological changes associated with apoptosis. Two principal morphological characteristics can be observed in the apoptosis process, chromatin condensation and nuclei fragmentation. Hoechst is a dye capable of penetrating cells and binding to double-stranded DNA, emitting blue light that can be visualized by using fluorescence microscopy.
The morphological changes were analyzed using Hoechst-stained fluorescence microscopy. For the analysis, 15 × 10^4 HT29 cells were plated on a coverslip within a 24-well plate. […] The cells were washed twice with PBS, treated with cold MeOH for 3 min, washed again with PBS, and then incubated in 500 μL of Hoechst solution (50 ng/mL) in PBS for 15 min in the dark. Finally, the samples were visualized through fluorescent microscopy (DMRB, Leica Microsystems, Wetzlar, Germany) under a DAPI filter.

Row | Structure (SMILES) | IC50 [1] [µg/mL] | IC80 [1] [µg/mL] | increase in the cell population in the S phase compared with the control (HT29 cells [2]; regardless of the administered dose (IC50 and IC80)) [%] | early apoptosis, % of cell population (HT29 cells [3]; IC50 concentration) [%] | late apoptosis, % of cell population (HT29 cells [3]; IC50 concentration) [%] | total apoptosis, % of cell population (HT29 cells [3]; IC50 concentration) [%] | early apoptosis, % of cell population (HT29 cells [3]; IC80 concentration) [%] | late apoptosis, % of cell population (HT29 cells [3]; IC80 concentration) [%] | total apoptosis, % of cell population (HT29 cells [3]; IC80 concentration) [%] | nuclear morphology, Hoechst staining (HT29 cells [4]; IC50 concentration) | nuclear morphology, Hoechst staining (HT29 cells [4]; IC80 concentration) | increase in the cell population in the S phase compared with the control (HT29 cells [2]; IC50 dose) [%] | increase in the cell population in the S phase compared with the control (HT29 cells [2]; IC80 dose) [%] | percentage of necrotic cells (HT29 cells [3]; IC50 concentration, control 3%) [%]
1 | CC(C)C1=CC2=C(C(=O)C1=O)[C@@]1(C)CCCC(C)(C)[C@@H]1CC2 [Compound 13] | 4.14 ± 0.25 (≈ 13.8 µM) | 5.41 ± 0.25 (≈ 18 µM) | 10 | 6 | 12 | 18 | 7 | 14 | 21 | loss of normal nuclear architecture and chromatin condensation | formation of pyknotic or contracted nuclei followed by fragmentation into apoptotic bodies |  |  | 
2 | CC(C)C1=CC2=C(C(=O)C1=O)C1=CC(=O)CC(C)(C)[C@@]1(C)C=C2 [Compound 5, Pygmaeocin B] | 13.6 ± 0.14 (≈ 43.9 µM) | 14.04 ± 0.08 (≈ 45.2 µM) |  | 5 | 17 | 22 | 12 | 23 | 35 | loss of normal nuclear architecture and chromatin condensation | formation of pyknotic or contracted nuclei followed by fragmentation into apoptotic bodies | 4 | 10 | 15
